Assay results from patent publication US20230167073A1 (Teijin Pharma Limited, priority 2020, published 2023).

Target: T1, Human TRPC6 (Homo sapiens, UniProt Q9Y210)
T1 construct: expressed in transfected cells
T1 sequence (Q9Y210 1-931): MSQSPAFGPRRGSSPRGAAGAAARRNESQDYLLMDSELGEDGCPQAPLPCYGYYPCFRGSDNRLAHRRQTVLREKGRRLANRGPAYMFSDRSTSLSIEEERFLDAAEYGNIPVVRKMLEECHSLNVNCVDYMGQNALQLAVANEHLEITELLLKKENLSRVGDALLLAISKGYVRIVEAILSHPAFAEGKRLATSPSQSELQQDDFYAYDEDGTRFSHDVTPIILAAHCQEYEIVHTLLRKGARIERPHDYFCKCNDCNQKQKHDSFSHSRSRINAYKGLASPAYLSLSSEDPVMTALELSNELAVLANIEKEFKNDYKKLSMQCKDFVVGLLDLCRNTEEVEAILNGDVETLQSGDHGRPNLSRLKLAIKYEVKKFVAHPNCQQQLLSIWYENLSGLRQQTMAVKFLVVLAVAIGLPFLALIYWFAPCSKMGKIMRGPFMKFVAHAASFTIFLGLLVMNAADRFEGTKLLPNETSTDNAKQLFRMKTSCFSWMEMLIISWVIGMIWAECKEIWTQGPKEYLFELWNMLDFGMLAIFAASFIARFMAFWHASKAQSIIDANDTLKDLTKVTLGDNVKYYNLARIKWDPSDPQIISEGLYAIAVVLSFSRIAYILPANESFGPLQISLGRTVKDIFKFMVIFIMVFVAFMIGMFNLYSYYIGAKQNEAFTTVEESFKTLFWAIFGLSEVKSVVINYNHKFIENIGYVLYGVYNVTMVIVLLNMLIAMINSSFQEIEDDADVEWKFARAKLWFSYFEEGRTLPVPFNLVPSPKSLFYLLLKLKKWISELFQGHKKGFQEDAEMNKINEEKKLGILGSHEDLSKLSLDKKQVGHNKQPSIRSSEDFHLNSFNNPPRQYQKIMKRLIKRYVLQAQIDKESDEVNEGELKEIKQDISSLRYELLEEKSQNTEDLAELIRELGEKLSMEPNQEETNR
Experiment: Evaluation of TRPC6 channel inhibitory activity (1), FLIPR Calcium 5 Assay Kit, OAG stimulation (Compound Nos. 1-1293)
Type: cell-based
Details: Human TRPC6 stably-expressing cells, OAG 30 μM, FLIPR Calcium 5 Assay Kit; read-out: Inhibitory activity (pIC50 class) (converted)
Outline: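 Cells stably expressing human TRPC6, plated 24 h before, were loaded 30 min with Calcium 5 dye plus probenecid in HEPES-HBSS. Compound was added 20 min before OAG (30 μM final) and fluorescence tracked on FLIPR. Inhibition normalised to no-compound and no-compound/no-OAG wells; pIC50 from four-parameter fit, reported as +/++/+++ categories.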

Row | Structure (SMILES) | IC50 [nM]
1 | Cc1nc(N2CCOCC2)sc1C(=O)c1cc(C#N)ccc1-c1ccc(CCN)cn1 [compound 1076, 4-[5-(2-aminoethyl)pyridin-2-yl]-3-(4-methyl-2-morpholin-4-yl-1,3-thiazole-5-carbonyl)benzonitrile] | < 10
2 | N#Cc1ccc(-c2ccc(CN)cn2)c(C(=O)c2sc(N3CCOCC3)nc2C(F)(F)F)c1 [compound 1080, 4-[5-(aminomethyl)pyridin-2-yl]-3-[2-morpholin-4-yl-4-(trifluoromethyl)-1,3-thiazole-5-carbonyl]benzonitrile] | < 10
3 | N#Cc1ccc(-c2ccc(CCN)cc2)c(C(=O)c2cnc(N3CCOCC3)o2)c1 [compound 1081, 4-[4-(2-aminoethyl)phenyl]-3-(2-morpholin-4-yl-1,3-oxazole-5-carbonyl)benzonitrile] | 10 to 1000
4 | N#Cc1ccc(-c2ccc(CN)cn2)c(C(=O)c2cnc(N3CCOCC3)o2)c1 [compound 1085, 4-[5-(aminomethyl)pyridin-2-yl]-3-(2-morpholin-4-yl-1,3-oxazole-5-carbonyl)benzonitrile] | 10 to 1000
5 | N#Cc1ccc(-c2ncc(CN)cn2)c(C(=O)c2sc(N3CCOCC3)nc2C(F)(F)F)c1 [compound 1087, 4-[5-(aminomethyl)pyrimidin-2-yl]-3-[2-morpholin-4-yl-4-(trifluoromethyl)-1,3-thiazole-5-carbonyl]benzonitrile] | < 10
6 | N#Cc1ccc(-c2ccc(CCN)cc2)c(C(=O)c2nnc(N3CCOCC3)s2)c1 [compound 1088, 4-[4-(2-aminoethyl)phenyl]-3-(5-morpholin-4-yl-1,3,4-thiadiazole-2-carbonyl)benzonitrile] | 10 to 1000
7 | N#Cc1ccc(-c2ccc(CN)cn2)c(C(=O)c2nnc(N3CCOCC3)o2)c1 [compound 1089, 4-[5-(aminomethyl)pyridin-2-yl]-3-(5-morpholin-4-yl-1,3,4-oxadiazole-2-carbonyl)benzonitrile] | 10 to 1000
8 | N#Cc1ccc(-c2ccc(CCN)cn2)c(C(=O)c2nnc(N3CCOCC3)o2)c1 [compound 1091, 4-[5-(2-aminoethyl)pyridin-2-yl]-3-(5-morpholin-4-yl-1,3,4-oxadiazole-2-carbonyl)benzonitrile] | 10 to 1000
9 | N#Cc1ccc(-c2ncc(CCN)cn2)c(C(=O)c2nnc(N3CCOCC3)o2)c1 [compound 1092, 4-[5-(2-aminoethyl)pyrimidin-2-yl]-3-(5-morpholin-4-yl-1,3,4-oxadiazole-2-carbonyl)benzonitrile] | 10 to 1000
10 | N#Cc1ccc(-c2ccc(CN)cn2)c(C(=O)c2nnc(N3CCOCC3)s2)c1 [compound 1093, 4-[5-(aminomethyl)pyridin-2-yl]-3-(5-morpholin-4-yl-1,3,4-thiadiazole-2-carbonyl)benzonitrile] | > 1000
11 | N#Cc1ccc(-c2ccc(CCN)cn2)c(C(=O)c2nnc(N3CCOCC3)s2)c1 [compound 1094, 4-[5-(2-aminoethyl)pyridin-2-yl]-3-(5-morpholin-4-yl-1,3,4-thiadiazole-2-carbonyl)benzonitrile] | 10 to 1000
12 | N#Cc1ccc(-c2ncc(CCN)cn2)c(C(=O)c2nnc(N3CCOCC3)s2)c1 [compound 1096, 4-[5-(2-aminoethyl)pyrimidin-2-yl]-3-(5-morpholin-4-yl-1,3,4-thiadiazole-2-carbonyl)benzonitrile] | 10 to 1000
13 | Cc1cc(C(=O)c2cc(F)ccc2-c2ncc(CCN)cn2)cc(N2CCOCC2)n1 [compound 1097, [2-[5-(2-aminoethyl)pyrimidin-2-yl]-5-fluorophenyl]-(2-methyl-6-morpholin-4-ylpyridin-4-yl)methanone] | < 10
14 | NCc1cnc(-c2ccc(F)cc2C(=O)c2cnn(CC(F)F)c2)nc1 [compound 1099, [2-[5-(aminomethyl)pyrimidin-2-yl]-5-fluorophenyl]-[1-(2,2-difluoroethyl)pyrazol-4-yl]methanone] | > 1000
15 | Cn1cc(C(=O)c2cc(F)ccc2-c2ncc(CCN)cn2)cn1 [compound 1100, [2-[5-(2-aminoethyl)pyrimidin-2-yl]-5-fluorophenyl]-(1-methylpyrazol-4-yl)methanone] | > 1000

Next, values leading:

Row | IC50 [nM] | Structure (SMILES)
16 | < 10 | CCN(CC(F)F)c1cc(C(=O)c2cc(C#N)ccc2-c2ncc(CN)cn2)n(C)n1 [compound 1074, 4-[5-(aminomethyl)pyrimidin-2-yl]-3-[5-[2,2-difluoroethyl(ethyl)amino]-2-methylpyrazole-3-carbonyl]benzonitrile]
17 | < 10 | CNc1cc(C(=O)c2cc(C#N)ccc2-c2ccc(CCN)cn2)n(C)n1 [compound 1075, 4-[5-(2-aminoethyl)pyridin-2-yl]-3-[2-methyl-5-(methylamino)pyrazole-3-carbonyl]benzonitrile]
18 | < 10 | N#Cc1ccc(-c2ccc(CCN)cn2)c(C(=O)c2sc(N3CCOCC3)nc2C(F)(F)F)c1 [compound 1077, 4-[5-(2-aminoethyl)pyridin-2-yl]-3-[2-morpholin-4-yl-4-(trifluoromethyl)-1,3-thiazole-5-carbonyl]benzonitrile]
19 | < 10 | N#Cc1ccc(-c2ncc(CCN)cn2)c(C(=O)c2sc(N3CCOCC3)nc2C(F)(F)F)c1 [compound 1078, 4-[5-(2-aminoethyl)pyrimidin-2-yl]-3-[2-morpholin-4-yl-4-(trifluoromethyl)-1,3-thiazole-5-carbonyl]benzonitrile]
20 | < 10 | N#Cc1ccc(-c2ccc(CCN)cc2)c(C(=O)c2cnnc(N3CCOCC3)c2)c1 [compound 1079, 4-[4-(2-aminoethyl)phenyl]-3-(6-morpholin-4-ylpyridazine-4-carbonyl)benzonitrile]
21 | > 1000 | N#Cc1ccc(-c2ncc(CN)cn2)c(C(=O)c2cnc(N3CCOCC3)o2)c1 [compound 1082, 4-[5-(aminomethyl)pyrimidin-2-yl]-3-(2-morpholin-4-yl-1,3-oxazole-5-carbonyl)benzonitrile]
22 | 10 to 1000 | N#Cc1ccc(-c2ccc(CCN)cn2)c(C(=O)c2cnc(N3CCOCC3)o2)c1 [compound 1083, 4-[5-(2-aminoethyl)pyridin-2-yl]-3-(2-morpholin-4-yl-1,3-oxazole-5-carbonyl)benzonitrile]
23 | 10 to 1000 | N#Cc1ccc(-c2ncc(CCN)cn2)c(C(=O)c2cnc(N3CCOCC3)o2)c1 [compound 1084, 4-[5-(2-aminoethyl)pyrimidin-2-yl]-3-(2-morpholin-4-yl-1,3-oxazole-5-carbonyl)benzonitrile]
24 | < 10 | N#Cc1ccc(-c2ccc(CCN)cc2)c(C(=O)c2nnc(N3CCOCC3)o2)c1 [compound 1086, 4-[4-(2-aminoethyl)phenyl]-3-(5-morpholin-4-yl-1,3,4-oxadiazole-2-carbonyl)benzonitrile]
25 | > 1000 | N#Cc1ccc(-c2ncc(CN)cn2)c(C(=O)c2nnc(N3CCOCC3)o2)c1 [compound 1090, 4-[5-(aminomethyl)pyrimidin-2-yl]-3-(5-morpholin-4-yl-1,3,4-oxadiazole-2-carbonyl)benzonitrile]
26 | > 1000 | N#Cc1ccc(-c2ncc(CN)cn2)c(C(=O)c2nnc(N3CCOCC3)s2)c1 [compound 1095, 4-[5-(aminomethyl)pyrimidin-2-yl]-3-(5-morpholin-4-yl-1,3,4-thiadiazole-2-carbonyl)benzonitrile]
27 | > 1000 | NCCc1cnc(-c2ccc(F)cc2C(=O)c2cnn(CC(F)F)c2)nc1 [compound 1098, [2-[5-(2-aminoethyl)pyrimidin-2-yl]-5-fluorophenyl]-[1-(2,2-difluoroethyl)pyrazol-4-yl]methanone]
